Tests used:
Assay type in all cases: cell-based
[1] = molecular target: EP2 subtype of the human PGE2 receptor (Homo sapiens, UniProt P43116); experiment: cAMP antagonism test on the human EP2 receptor (HTRF cAMP detection); conditions: hEP2 receptor, read-out: Antagonism hEP2 IC50
Procedure, shortened: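 Read-out is a competitive HTRF for cAMP: lysate cAMP displaces cAMP-d2 from Eu cryptate-labelled antibody, and antagonism raises the 665/620 nm ratio. Compound (0.8 nM–16.5 μM) added to EP2 cells 20 min at RT before 60 min PGE2 challenge (3× stock 1.5 nM) with IBMX, followed by 20 min lysis.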

[2] = molecular target: EP4 subtype of the human PGE2 receptor (Homo sapiens, UniProt P35408); experiment: cAMP antagonism test on the human EP4 receptor (HTRF cAMP detection); conditions: selectivity towards hEP4, IC50 measured by cAMP antagonism test
Procedure, shortened: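 Competitive HTRF cAMP read-out (cAMP-d2 vs Eu-cryptate anti-cAMP antibody, 665/620 nm ratio) on lysed human EP4 cells. Compound (0.8 nM–16.5 μM) applied 20 min at RT before 60 min PGE2 challenge (3× solution 0.3 nM, IBMX present); 20 min lysis precedes reading.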

[3] = molecular target: T1, human PGD receptor (Homo sapiens, UniProt Q13258); experiment: cAMP antagonism test on the human prostaglandin D receptor (HTRF cAMP detection); conditions: selectivity towards hDP, IC50 measured by cAMP antagonism test
T1 sequence (Q13258 1-359): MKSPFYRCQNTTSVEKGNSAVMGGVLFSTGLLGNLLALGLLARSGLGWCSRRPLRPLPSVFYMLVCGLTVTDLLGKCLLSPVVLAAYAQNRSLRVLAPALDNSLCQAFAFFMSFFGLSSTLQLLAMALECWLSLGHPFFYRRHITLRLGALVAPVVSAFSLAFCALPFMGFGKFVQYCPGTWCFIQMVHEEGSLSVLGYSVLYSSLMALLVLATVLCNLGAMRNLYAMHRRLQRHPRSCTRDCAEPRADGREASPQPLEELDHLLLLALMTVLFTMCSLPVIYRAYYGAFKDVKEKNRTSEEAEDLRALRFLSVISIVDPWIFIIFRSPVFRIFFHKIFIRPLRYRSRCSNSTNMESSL
Procedure, shortened: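 HTRF competition read-out (665/620 nm ratio ×10000), where higher FRET means less cAMP, i.e. antagonism. Compounds (0.8 nM–16.5 μM) were preincubated 20 min at RT with cells and cAMP-d2, PGD2 (3× solution, 6 nM) in IBMX-containing PBS added for 30 min at RT, then cells lysed 20 min.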

EP4 subtype of the human PGE2 receptor, sequence (P35408 whole entry): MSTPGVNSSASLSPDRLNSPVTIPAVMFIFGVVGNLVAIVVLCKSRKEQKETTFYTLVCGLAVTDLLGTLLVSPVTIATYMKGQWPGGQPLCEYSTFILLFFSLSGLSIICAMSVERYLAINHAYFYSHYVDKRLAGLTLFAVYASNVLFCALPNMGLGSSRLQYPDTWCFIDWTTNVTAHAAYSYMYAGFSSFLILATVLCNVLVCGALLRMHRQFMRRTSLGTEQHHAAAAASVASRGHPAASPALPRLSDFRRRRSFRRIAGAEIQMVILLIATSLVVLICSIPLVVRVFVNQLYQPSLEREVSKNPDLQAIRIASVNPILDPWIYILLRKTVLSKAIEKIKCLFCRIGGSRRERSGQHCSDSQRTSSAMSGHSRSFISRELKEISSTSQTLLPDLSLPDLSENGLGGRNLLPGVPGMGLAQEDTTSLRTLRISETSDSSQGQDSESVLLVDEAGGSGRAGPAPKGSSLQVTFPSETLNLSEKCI
EP2 subtype of the human PGE2 receptor, sequence (P43116 whole entry): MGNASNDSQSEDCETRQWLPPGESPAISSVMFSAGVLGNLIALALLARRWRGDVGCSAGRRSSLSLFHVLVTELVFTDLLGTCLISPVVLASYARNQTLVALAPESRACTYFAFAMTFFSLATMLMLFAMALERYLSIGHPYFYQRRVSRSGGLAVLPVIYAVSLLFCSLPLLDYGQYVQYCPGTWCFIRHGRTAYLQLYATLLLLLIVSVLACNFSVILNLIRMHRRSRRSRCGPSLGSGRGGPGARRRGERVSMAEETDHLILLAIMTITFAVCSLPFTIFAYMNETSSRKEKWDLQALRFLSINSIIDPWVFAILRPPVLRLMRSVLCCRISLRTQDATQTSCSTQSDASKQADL

Structure (SMILES) | IC50 [1] [nM] | Selectivity hEP2/hEP4 [2] | Selectivity hEP2/hDP [3]
Cc1c(C(=O)NCC(F)(F)F)ccc2nn(CC3CCN(C(=O)c4cc5ccccc5n4C)CC3)cc12 [Example 290, 4-methyl-2-({1-[(1-methyl-1H-indol-2-yl)carbonyl]piperidin-4-yl}methyl)-N-(2,2,2-trifluoroethyl)-2H-indazol-5-carboxamide] | 42.6 | xxx (xxx > 100) | xxx (xxx > 100)
COc1ccc2cc(C(=O)N3CC(Cn4cc5c(C)c(C(=O)NCC(F)(F)F)ccc5n4)C3)n(C)c2c1 [Example 169, 2-({1-[(6-methoxy-1-methyl-1H-indol-2-yl)carbonyl]azetidin-3-yl}methyl)-4-methyl-N-(2,2,2-trifluoroethyl)-2H-indazol-5-carboxamide] | 27.7 | xxx (xxx > 100) | xxx (xxx > 100)
COCCNC(=O)c1ccc2nn(CC3CCN(C(=O)c4ccc(Cl)c(C(F)(F)F)c4)CC3)cc2c1OC [Example 270, 2-({1-[4-chloro-3-(trifluoromethyl)benzoyl]piperidin-4-yl}methyl)-4-methoxy-N-(2-methoxyethyl)-2H-indazol-5-carboxamide] | 53.1 | xxx (xxx > 100) | xxx (xxx > 100)
Cc1cc2nn(CC3CCN(C(=O)c4ccc(-c5ccc(F)cc5)cc4)CC3)cc2cc1C(=O)NCCN1CCOCC1 [Example 83, 2-({l-[(4′-fluoro-biphenyl-4-yl)-carbonyl]piperidin-4-yl}methyl)-6-methyl-N-(2-morpholino-ethyl)-2H-indazol-5-carboxamide] | 32.6 | xxx (xxx > 100) | xxx (xxx > 100)
Cc1c(C(=O)NCC2COCCO2)ccc2nn(CC3CN(C(=O)c4ccc(Cl)cc4)C3)cc12 (racemic) [Example 141, (+/−)-2-{[1-(4-chlorobenzoyl)azetidin-3-yl]methyl}-N-(1,4-dioxan-2-ylmethyl)-4-methyl-2H-indazol-5-carboxamide] | 143 | xxx (xxx > 100) | xxx (xxx > 100)
Cc1c(C(=O)NCC(F)(F)F)ccc2nn(CC3CCN(C(=O)c4ncc(-c5ccccc5)o4)CC3)cc12 [Example 309, 4-methyl-2-({1-[(5-phenyloxazol-2-yl)carbonyl]piperidin-4-yl}methyl)-N-(2,2,2-trifluoroethyl)-2H-indazol-5-carboxamide] | 66 | xxx (xxx > 100) | xxx (xxx > 100)
COc1cccc(-c2ccc(C(=O)N3CCC(Cn4cc5c(C)c(C(=O)NCC(F)(F)F)ccc5n4)CC3)cc2)n1 [Example 323, 2-({1-[4-(6-methoxypyridin-2-yl)benzoyl]piperidin-4-yl}methyl)-4-methyl-N-(2,2,2-trifluoroethyl)-2H-indazol-5-carboxamide] | 128 | xxx (xxx > 100) | xxx (xxx > 100)
Cc1cc2nn(CC3CN(C(=O)c4ccc(Oc5ccc(F)cc5)cc4)C3)cc2cc1C(=O)NCCSC(F)(F)F [Example 199, 2-({1-[4-(4-fluorophenoxy)benzoyl]azetidin-3-yl}methyl)-6-methyl-N-{2-[(trifluoromethyl)sulphanyl]ethyl}-2H-indazol-5-carboxamide] | 97.1 | xxx (xxx > 100) | xxx (xxx > 100)
COCCNC(=O)c1ccc2nn(CC3CCN(C(=O)c4ccc(C(F)(F)F)cc4F)CC3)cc2c1C [Example 10, 2-({1-[2-fluoro-4-(trifluoromethyl)benzoyl]piperidin-4-yl}methyl)-N-(2-methoxy-ethyl)-4-methyl-2H-indazol-5-carboxamide] | 8.67 | xxx (xxx > 100) | xxx (xxx > 100)
COCCNC(=O)c1ccc2nn(CC3CCN(C(=O)c4ccc(Oc5cccc(F)c5)cc4)CC3)cc2c1C [Example 361, 2-({1-[4-(3-fluorophenoxy)benzoyl]piperidin-4-yl}methyl)-N-(2-methoxyethyl)-4-methyl-2H-indazol-5-carboxamide] | 5.11 | xxx (xxx > 100) | xxx (xxx > 100)
COCCNC(=O)c1ccc2nn(CC3CN(C(=O)c4ccc5ccc(OC)cc5c4)C3)cc2c1C [Example 175, N-(2-methoxyethyl)-2-{[1-(7-methoxy-2-naphthoyl)azetidin-3-yl]methyl}-4-methyl-2H-indazol-5-carboxamide] | 8.05 | xxx (xxx > 100) | xxx (xxx > 100)
Cc1c(C(=O)NCCS(C)(=O)=O)ccc2nn(CC3CCN(C(=O)c4ccc(Cl)cc4)CC3)cc12 [Example 244, 2-{[1-(4-chlorobenzoyl)piperidin-4-yl]methyl}-N-(2-mesylethyl)-4-methyl-2H-indazol-5-carboxamide] | 44.2 | xxx (xxx > 100) | xxx (xxx > 100)
Cc1c(C(=O)NCC2COCCO2)ccc2nn(CC3CN(C(=O)c4ccc(Oc5ccc(F)cc5)cc4)C3)cc12 (racemic) [Example 148, (+/−)-N-(1,4-dioxan-2-ylmethyl)-2-({1-[4-(4-fluorophenoxy)benzoyl]azetidin-3-yl}methyl)-4-methyl-2H-indazol-5-carboxamide] | 27.4 | xxx (xxx > 100) | xxx (xxx > 100)
Cc1c(C(=O)NCC(F)(F)F)ccc2nn(CC3CCN(C(=O)c4cc5cc(F)ccc5n4C)CC3)cc12 [Example 292, 2-({1-[(5-fluoro-1-methyl-1H-indol-2-yl)carbonyl]piperidin-4-yl}methyl)-4-methyl-N-(2,2,2-trifluoroethyl)-2H-indazol-5-carboxamide] | 20 | xxx (xxx > 100) | xxx (xxx > 100)
Cc1c(C(=O)NCC(F)(F)F)ccc2nn(CC3CN(C(=O)c4ccc(Oc5ccc(C(F)(F)F)cn5)cc4)C3)cc12 [Example 177, 4-methyl-N-(2,2,2-trifluoroethyl)-2-{[1-(4-{[5-(trifluoromethyl)pyridin-2-yl]oxy}benzoyl)azetidin-3-yl]methyl}-2H-indazol-5-carboxamide] | 118 | xxx (xxx > 100) | xxx (xxx > 100)
COCCNC(=O)c1ccc2nn(CC3CCN(C(=O)c4ccc(Oc5nccc(C(F)(F)F)n5)cc4)CC3)cc2c1C [Example 347, N-(2-methoxyethyl)-4-methyl-2-{[1-(4-{[4-(trifluoromethyl)pyrimidin-2-yl]-oxy}benzoyl)piperidin-4-yl]methyl}-2H-indazol-5-carboxamide] | 7.88 | xxx (xxx > 100) | xxx (xxx > 100)

From patent US9062041B2 (Bayer Intellectual Property GmbH, priority 2011, dated 2015)
